Laboratory results as given in PubChem BioAssay AID179 (DTP/NCI, 2004).
pEC50, pIC50: −log10 of the molar value. Active and inactive are the calls of the source.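 How the source made its calls: active means compounds giving half or more protection of infected cells from virus-caused growth loss, again on retest; inactive means the rest.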 Where a SMILES comes first, the peptide text is derived from it. The star is where a group is joined. Cbz = O=C(OCc1ccccc1)*; Boc = CC(C)(C)OC(=O)*; OSu = O=C1CCC(=O)N1O*; Bn = c1ccc(C*)cc1

Test system: CEM cells HIV-1 protection, formazan growth assay
Assay: NCI AIDS Antiviral Assay
Settings: for pIC50: measured here: growth of uninfected CEM cells
Method in brief: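 Soluble formazan readout of cell growth; CEM cells ± HIV-1; 5 drug concs. ≥50% protection → retest; ≥50% again = moderately active; reproducible 100% = confirmed active.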

Compound COC1/C=C/OC2(C)Oc3c(C)c(O)c4c(O)c(c(/C=N/OCCN5CCCCC5)c(O)c4c3C2=O)NC(=O)C(C)=C/C=C/C(C)C(O)C(C)C(O)C(C)C(OC(C)=O)C1C (stereo not given) has a pEC50 of under 4.00 and a pIC50 of 4.55.

With COc1ccc(/C=C/c2ccc3ccccc3n2)c(OC)c1 the pEC50 was under 3.70 and the pIC50 was 4.91.

Work on C=CCNC(=O)N(CCCC(NC(C)=O)C(=O)NCc1ccccc1)Cc1ccccc1 (stereo not given) yielded a pEC50 of under 3.24 and a pIC50 of under 3.24.

In the case of CCOC(=O)C1C=C1C(C)(C)O (stereo not given), the pEC50 was under 3.82 and the pIC50 was 3.87.

Work on O=c1c2cc(S(=O)(=O)Nc3ccc(Cl)cc3Cl)ccc2ncn1NS(=O)(=O)c1cccc2ccccc12 yielded a pEC50 of under 3.70 and a pIC50 of 4.48.

OCC(O)C(O)C(O)C(O)c1nc2ccccc2s1 (stereo not given) showed a pEC50 of under 3.90 and a pIC50 of 4.01.

COCC(C#N)NC1CC(OC2CC(O)(C(=O)CO)Cc3c(O)c4c(c(O)c32)C(=O)c2c(OC)cccc2C4=O)OC(C)C1O (stereo not given) gave a pEC50 of under 6.70 and a pIC50 of 8.04.

Oc1ccc(Cl)cc1-c1cc(-c2ccccc2)nc(=S)[nH]1 showed a pEC50 of under 3.70 and a pIC50 of 3.77.

Compound COc1cccc2sc(-n3c(C)nc4ccccc4c3=O)nc12 has a pEC50 of under 3.70 and a pIC50 of under 3.70.

With O=C(N/C(=C\c1cccc([N+](=O)[O-])c1)c1nc2c3c(ccc2[nH]1)C(=O)c1ccccc1C3=O)c1ccccc1 the outcome was “inactive”.

CC(=O)c1ccc2c(c1)N(CCCN1CCN(CCO)CC1)c1ccccc1S2 gave a pEC50 of under 3.70 and a pIC50 of 4.99.

CC12CO[C@@](C)(CC(S(=O)(=O)c3ccccc3)C1)O2 (stereo not given in full) was tested, and the pEC50 was under 3.75 and the pIC50 was under 3.75.

O=C1/C(=C\c2ccc([N+](=O)[O-])cc2)Sc2scc(-c3ccc(O)c(O)c3)[n+]21 showed a pEC50 of under 3.70 and a pIC50 of 5.28.

Work on O=[N+]([O-])c1cccc(-c2cn3c(n2)Cc2ccccc2C3)c1 yielded a pEC50 of under 3.70 and a pIC50 of 4.47.

C[C@H](CCC(=O)O)[C@H]1CC[C@H]2[C@@H]3[C@H](O)[C@H](O)[C@@H]4C[C@H](O)CC[C@]4(C)[C@H]3CC[C@]12C showed a pEC50 of under 3.70 and a pIC50 of 4.14.

CCN(CC)CCCCC1CCN(CC(=O)N2c3cc(Cl)ccc3NC(=O)CC2C)CC1 (stereo not given) showed a pEC50 of under 3.60 and a pIC50 of 4.18.

O=C(NC(=O)c1cn(C2OC(CO)C(O)C2O)c(=O)[nH]c1=O)OCc1ccccc1 (stereo not given) was tested, and the pEC50 was under 3.23 and the pIC50 was under 3.23.

Work on O=C(O)CN1CCN2CCOCCN(CC1)CCN(CC(=O)O)CC2 yielded a pEC50 of under 3.70 and a pIC50 of under 3.70.

Work on COC1CC(OC2C(C)OC(OC3C(C)OC(OC4C(C)OC(O[C@H]5CC[C@@]6(C)C(=CC[C@]7(O)[C@@H]6C[C@@H](OC(=O)/C=C/c6ccccc6)[C@@]6(C)[C@]7(O)CC[C@@]6(O)C(C)=O)C5)CC4OC)CC3OC)CC2OC)OC(C)C1O (stereo not given in full) yielded a pEC50 of under 3.70 and a pIC50 of 4.66.

In the case of CC(C)C12NC(=O)NC(=O)N1CCS2 (stereo not given), the outcome was “inactive”.

For Clc1ccc(-c2nnc(-c3nn(-c4ccccc4)c4nc5ccccc5nc34)o2)cc1, the pEC50 was under 5.89 and the pIC50 was under 5.89.

Compound O.O.O=C(O)C(=O)O.O=C(O)C(=O)O.[Cu] has a pEC50 of under 3.70 and a pIC50 of 4.68.

O=C1/C(=C/c2ccc(Cl)cc2)Sc2scc(-c3cccc([N+](=O)[O-])c3)[n+]21 was tested, and the pEC50 was under 3.70 and the pIC50 was 5.86.

CCC(C)(C)c1ccc(OCCCCNC(=O)c2ccc3ccccc3c2O)c(C(C)(C)CC)c1 showed a pEC50 of under 3.70 and a pIC50 of 5.13.

In the case of COc1cccc(Nc2nc(NNC(=O)Cc3ccccc3)nc(NNC(=O)c3ccncc3)n2)c1, the pEC50 was under 3.70 and the pIC50 was under 3.70.

For Cc1cn(C2CC(n3cncn3)C(C(C)O)O2)c(=O)[nH]c1=O (stereo not given), the pEC50 was under 3.09 and the pIC50 was under 3.09.

Fc1c(F)c(F)c(CSc2nc3ccccc3[nH]2)c(F)c1F gave a pEC50 of under 3.70 and a pIC50 of 3.84.

Clc1ccc2noc(-c3ccccc3)c2c1 gave a pEC50 of under 4.64 and a pIC50 of under 4.64.

Compound COc1cc(COC(=O)N(CC(=O)O)c2ccccc2)c([N+](=O)[O-])cc1OC has a pEC50 of under 3.19 and a pIC50 of 3.53.

For Cc1cc(O)c2c(c1)C(O)(c1ccc3c(c1O)C(=O)c1c(O)cc(C)cc1C3(O)C1OC(CO)C(O)C(O)C1O)c1cccc(O)c1C2=O (stereo not given), the outcome was “inactive”.

Compound NS(=O)(=O)c1cc[n+]([O-])c2ccccc12 has a pEC50 of under 3.70 and a pIC50 of 4.26.

O=C(O)CCc1c2ccc(=O)c(O)c-2oc2c(O)c(O)ccc12 showed a pEC50 of 4.07 and a pIC50 of 3.99.

Work on CN1C(=O)c2ccccc2C2(O)c3ccccc3-c3ccccc3C12O (stereo not given) yielded a pEC50 of under 4.70 and a pIC50 of 5.35.

Work on CCCCCCCN=c1ssc(=O)n1CCCCCCC yielded a pEC50 of under 3.70 and a pIC50 of 5.05.

Nc1nn2cc3c(nc2c1N=Nc1ccccc1)CCCC3 gave a pEC50 of under 3.70 and a pIC50 of 5.35.

For S=c1cn[nH]c2c(Br)cccc12, the pEC50 was under 4.05 and the pIC50 was 4.17.

Compound CC(=O)/C=C(/C)[O-].CCN(CC)CCNCCN.O=N[O-].[Co+3].[O-][Cl+3]([O-])([O-])[O-] has a pEC50 of under 3.70 and a pIC50 of under 3.70.

Compound CC1(Cn2ccc(=O)[nH]c2=O)CC(C2(C)OCCO2)C(=O)O1 (stereo not given) has a pEC50 of under 3.09 and a pIC50 of under 3.09.

For N/N=C1\c2ccccc2C2/C(=N\N)c3ccccc3C12 (stereo not given), the outcome was “inactive”.

With CC(C)CCC1(CCSC#N)C(=O)NC(=O)NC1=O the pEC50 was under 3.70 and the pIC50 was 4.43.

S=C(Nc1ccc2c(c1)oc1ccccc12)c1cccnc1 gave a pEC50 of 4.17 and a pIC50 of under 3.70.

O=C1CCC2(c3ccccc3)Nc3ccncc3N12 (stereo not given) gave a pEC50 of under 3.00 and a pIC50 of 3.31.

For O=C=NCCCCCCN1C(=O)N2C(c3ccccc3)N(CCCCCCN=C=O)C(=O)N2C1c1ccccc1 (stereo not given), the outcome was “inactive”.

With Cc1ccc(-c2c(C#N)c(-c3ccc(Cl)cc3)c(C#N)c(=O)n2NS(=O)(=O)c2ccc(C)cc2)cc1 the pEC50 was under 3.70 and the pIC50 was 4.68.

Work on COC(=O)C12CC3CC(CC(NC(=O)C(Cc4ccccc4)NC(=O)CN)(C3)C1)C2 (stereo not given) yielded a pEC50 of under 3.70 and a pIC50 of 3.96.

In the case of C[C@]12CC[C@H](O)CC1=CC[C@@H]1C2CC[C@@]2(C)C1CC[C@@H]2c1ncc(-c2ccccc2)s1 (stereo not given in full), the pEC50 was under 4.94 and the pIC50 was under 4.94.

For Cc1c(Cl)ccc2c1NC(=O)C2(O)CC(=O)c1cccc2ccccc12 (stereo not given), the pEC50 was under 4.01 and the pIC50 was under 4.01.

In the case of N=C(N)SCc1ccc2c(c1)S(=O)(=O)c1ccccc1O2, the pEC50 was under 3.70 and the pIC50 was 4.88.

Work on N#Cc1ccc(Nc2cnc3ccc(N)cc3n2)cc1 yielded a pEC50 of under 4.98 and a pIC50 of under 4.98.

In the case of N#C/C(=C\NC(=S)NCc1ccccc1)c1nc2ccccc2s1, the pEC50 was under 3.70 and the pIC50 was 4.32.

In the case of H-HSFNCGGEFFY-OH, the outcome was “inactive”.

Compound CCCn1c(=O)c(N2CCN(c3ccccc3)CC2)nc2sc3ccccc3c21 has a pEC50 of under 3.70 and a pIC50 of under 3.70.

COc1ccc2cc(C(=O)NCCCNC(=O)c3ccc4cc(OC)ccc4c3)ccc2c1 was tested, and the outcome was “inactive”.

O=C(NNC(=O)c1ccccc1O)c1ccc(O)cc1 was tested, and the pEC50 was under 3.70 and the pIC50 was 4.84.

In the case of CC(C)(C)OC(=O)NC(Cc1ccc(OCc2ccccc2)cc1)C(=O)NC(CCCCNC(=O)OCc1ccccc1)C(=O)ON1C(=O)CCC1=O (stereo not given) (Boc-Tyr(Bn)-Lys(Cbz)-OSu; configuration not given here), the pEC50 was under 3.70 and the pIC50 was 4.44.

With O=C1C=C(c2[nH]c3ccccc3c2C2=CC(=O)c3ccccc3C2=O)C(=O)c2ccccc21 the outcome was “inactive”.

Compound N#CSC1=C(SC#N)C(=O)c2ccccc2C1=O has a pEC50 of under 3.70 and a pIC50 of 4.91.

Compound COC(=O)[C@@H]1C[C@@]23CCCN4CC[C@@]5(c6cccc(OC)c6N(C=O)[C@]15CC2)[C@@H]43 has a pEC50 of under 4.18 and a pIC50 of under 4.18.

Cc1nccnc1N1CCCCC1 showed a pEC50 of under 3.70 and a pIC50 of under 3.70.
